This test deals with Nuclear receptor subfamily 1 group D member 1 (Homo sapiens) (UniProt P20393). The experiment in a line: Rev-erbα–DNA interaction modulators – biochemical, FITC-DNA, fluorescence polarization, dose response (AID 1259321). As to conditions: Rev-erb alpha-FITC-DNA binding. (In general: Polarisation of emitted light reports the rotation of a fluorescent probe.)

The results in this text go back to PubChem BioAssay AID1259321 (Sanford-Burnham Center for Chemical Genomics, 2017).

For orientation: IC50 means the concentration at which inhibition is half-maximal.

Activity calls are given as the source filed them.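 The calls were made as follows: active = half-maximal concentration for changing protein binding to DNA, from the fitted dose curve, below 10 micromolar; inactive = the rest.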

Nuclear receptor subfamily 1 group D member 1 (Homo sapiens), sequence (P20393 whole entry, looked up): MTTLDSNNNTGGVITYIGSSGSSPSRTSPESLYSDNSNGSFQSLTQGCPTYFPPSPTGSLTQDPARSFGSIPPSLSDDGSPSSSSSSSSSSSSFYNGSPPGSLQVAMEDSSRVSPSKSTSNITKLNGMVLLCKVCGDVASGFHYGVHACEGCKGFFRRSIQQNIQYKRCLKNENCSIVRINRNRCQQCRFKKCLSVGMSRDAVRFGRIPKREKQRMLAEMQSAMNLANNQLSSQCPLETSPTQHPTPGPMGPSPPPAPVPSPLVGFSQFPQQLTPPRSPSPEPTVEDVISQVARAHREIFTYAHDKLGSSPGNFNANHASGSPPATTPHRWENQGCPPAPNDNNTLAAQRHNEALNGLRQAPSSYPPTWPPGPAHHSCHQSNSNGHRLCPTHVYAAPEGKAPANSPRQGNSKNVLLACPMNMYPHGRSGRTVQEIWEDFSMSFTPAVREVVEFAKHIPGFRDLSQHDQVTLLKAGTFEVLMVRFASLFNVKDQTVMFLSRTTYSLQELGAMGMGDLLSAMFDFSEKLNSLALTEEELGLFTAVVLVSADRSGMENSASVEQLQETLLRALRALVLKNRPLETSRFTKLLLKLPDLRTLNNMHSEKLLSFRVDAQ

On to `COc1ccc(-c2cc(-c3ccccc3)nc(SCC(=O)Nc3nccs3)c2C#N)cc1`, for which the IC50 is > 40 µM (inactive).

In the case of `CN(c1ccc(O)cc1)c1ccc([N+](=O)[O-])c2nonc12`, the IC50 is 6 µM.

For the compound `CCC(c1ccc(O)cc1)C(CC)c1ccc(O)cc1` (stereo unspecified), the IC50 entry was “inactive”.

Take `O=C(c1cc2cc(Cl)ccc2[nH]1)N1CCN(c2ccccn2)CC1`: the IC50 was > 40 µM (inactive).

With `COc1ccc(C(C)=O)cc1CSc1nc2ccccc2c(=O)n1-c1ccccc1`, the IC50 is > 40 µM (inactive).

For the compound `Cc1nc(NC(=O)c2cncc(Br)c2)ccc1Br`, the IC50 result was “inactive”.
